Assay results published in publication PMC10353060, “A Chemical Chaperone Restores Connexin 26 Mutant Activity” (ACS Pharmacology & Translational Science, 2023).

What was measured:
connexin 26 (Cx26) K188N = molecular target: T1, connexin 26 (Cx26) K188N (Homo sapiens, UniProt P29033, K188N); experiment: microscale thermophoresis (MST); type: binding; conditions: read-out: EC50
T1 construct: gene GJB2; purified recombinant connexin channel, His-tag Cy5 labeled

connexin 26 (Cx26) = molecular target: T2, connexin 26 (Cx26) (Homo sapiens, UniProt P29033); experiment: microscale thermophoresis (MST); type: binding; conditions: read-out: EC50
T2 construct: gene GJB2; purified recombinant WT connexin channel, His-tag Cy5 labeled

Work on `O=C(Nc1ncc([C@H](c2ccccc2Cl)N2CC[C@@H](O)C2)s1)C1(c2ccc3c(c2)OCO3)CC1` [compound 3, 1-(benzo[d][1,3]dioxol-5-yl)-N-(5-((S)-(2-chlorophenyl)((R)-3-hydroxypyrrolidin-1-yl)methyl)thiazol-2-yl) cyclopropanecarboxamide] yielded a Kd (connexin 26 (Cx26) K188N) of 4.75 ± 1 µM and a Kd (connexin 26 (Cx26)) of 19.3 ± 7.3 µM.
